Source: patent publication US20030109549A1 (published 2003)
Where a name gives a salt, the structure may show the parent alone.

In the case of `Clc1nc2ccccc2n1C1CCN(C2(c3ccccc3)CCCCCC2)CC1` (as salt: HCl), the melting point is reported as 153 to 156 °C.
With `c1ccc(C2(N3CCC(n4c(N5CCCCC5)nc5ccccc54)CC3)CCCCCC2)cc1` (as salt: HCl) the melting point was 177 to 180 °C.
With `c1ccc(CN2CCN(c3nc4ccccc4n3C3CCN(C4(c5ccccc5)CCCCCC4)CC3)CC2)cc1` (as salt: HCl) the melting point was 139 to 143 °C.
In the case of `c1ccc(C2(N3CCC(n4c(N5CCNCC5)nc5ccccc54)CC3)CCCCCC2)cc1` (as salt: HCl), the melting point is reported as 159 to 163 °C.
Molecule `CCCCCNc1nc2ccccc2n1C1CCN(C2(c3ccccc3)CCCCCC2)CC1` (as salt: HCl) has a melting point of 156 to 159 °C.
Work on `NCCNc1nc2ccccc2n1C1CCN(C2(c3ccccc3)CCCCCC2)CC1` (as salt: HCl) yielded a melting point of 228 to 232 °C.
Molecule `c1ccc(C2(N3CCC(n4c(NC5CCNCC5)nc5ccccc54)CC3)CCCCCC2)cc1` (as salt: HCl) has a melting point of 231 to 235 °C.
`CNC(C)Nc1nc2ccccc2n1C1CCN(C2(c3ccccc3)CCCCCC2)CC1` (stereo not shown) (as salt: HCl) gave a melting point of 173 to 177 °C.
In the case of `CN(C)CCNc1nc2ccccc2n1C1CCN(C2(c3ccccc3)CCCCCC2)CC1` (as salt: HCl), the melting point is reported as 188 to 192 °C.
In the case of `c1ccc(N2CCN(c3nc4ccccc4n3C3CCN(C4(c5ccccc5)CCCCCC4)CC3)CC2)cc1` (as salt: HCl), the melting point is reported as 188 to 192 °C.
With `CS(=O)(=O)c1nc2ccccc2n1C1CCN(C2(c3ccccc3)CCCCCC2)CC1` (as salt: HCl) the melting point was 155 to 158 °C.
For `O=C1CCN(c2nc3ccccc3n2C2CCN(C3(c4ccccc4)CCCCCC3)CC2)CC1` (as salt: HCl), the melting point was 168 to 172 °C.
With `OC1CCN(c2nc3ccccc3n2C2CCN(C3(c4ccccc4)CCCCCC3)CC2)CC1` (as salt: HCl) the melting point was 208 to 212 °C.
Work on `NC1CCN(c2nc3ccccc3n2C2CCN(C3(c4ccccc4)CCCCCC3)CC2)CC1` (as salt: HCl) yielded a melting point of 225 to 228 °C.
Molecule `c1ccc(C2(N3CCC(n4c(OC5CCNCC5)nc5ccccc54)CC3)CCCCCC2)cc1` (as salt: HCl) has a melting point of 114 to 118 °C.
Molecule `CSc1nc2ccccc2n1C1CCN(C2(c3ccccc3)CCCCCC2)CC1` (as salt: HCl) has a melting point of 168 to 171 °C.
`NCCOc1nc2ccccc2n1C1CCN(C2(c3ccccc3)CCCCCC2)CC1` (as salt: HCl) showed a melting point of 180 to 184 °C.
With `c1ccc(C2(N3CCC(n4c(N5CCCC5)nc5ccccc54)CC3)CCCCCC2)cc1` (as salt: HCl) the melting point was 178 to 181 °C.
With `NCC(=O)Nc1nc2ccccc2n1C1CCN(C2(c3ccccc3)CCCCCCC2)CC1` (as salt: HCl) the melting point was 217 to 221 °C.
`c1ccc(C2(N3CCC(n4c(N5CCOCC5)nc5ccccc54)CC3)CCCCCC2)cc1` (as salt: HCl) gave a melting point of 172 to 176 °C.
With `ON=C1CCN(c2nc3ccccc3n2C2CCN(C3(c4ccccc4)CCCCCC3)CC2)CC1` (as salt: fumaric acid salt) the melting point was 201 to 204 °C.
In the case of `N=C(N)NCCNc1nc2ccccc2n1C1CCN(C2(c3ccccc3)CCCCCC2)CC1` (as salt: salt), the melting point is reported as 215 to 218 °C.
